In experiment [1] the test system is A-431. Nature of the experiment: cells. In kind it is functional, cell-based. The settings on record: Homo sapiens.
Description: Inhibition of A431 cell proliferation
The target in experiment [2] is Epidermal growth factor receptor (Homo sapiens, UniProt P00533).
Description: Inhibition of Epidermal Growth Factor Receptor (EGFR) autophosphorylation
Experiment [3] has as its system SW-620. Nature of the experiment: cells. The settings on record: Homo sapiens. In kind it is functional, cell-based.
Description: Inhibition of SW-620 cell proliferation
Experiment [4] relates to SK-BR-3. The experiment is described as follows: cells. In kind it is functional, cell-based. The settings on record: Homo sapiens.
Description: Inhibition of SKBR-3 cell proliferation
Experiment [5] deals with Receptor tyrosine-protein kinase erbB-2 (Homo sapiens, UniProt P04626).
Description: Inhibition of human epidermal growth factor receptor-2 autophosphorylation

Each structure is given as a SMILES string. Values after ≈ are worked out from the molar mass of the structure shown.

Chain of Receptor tyrosine-protein kinase erbB-2 (P04626 whole entry): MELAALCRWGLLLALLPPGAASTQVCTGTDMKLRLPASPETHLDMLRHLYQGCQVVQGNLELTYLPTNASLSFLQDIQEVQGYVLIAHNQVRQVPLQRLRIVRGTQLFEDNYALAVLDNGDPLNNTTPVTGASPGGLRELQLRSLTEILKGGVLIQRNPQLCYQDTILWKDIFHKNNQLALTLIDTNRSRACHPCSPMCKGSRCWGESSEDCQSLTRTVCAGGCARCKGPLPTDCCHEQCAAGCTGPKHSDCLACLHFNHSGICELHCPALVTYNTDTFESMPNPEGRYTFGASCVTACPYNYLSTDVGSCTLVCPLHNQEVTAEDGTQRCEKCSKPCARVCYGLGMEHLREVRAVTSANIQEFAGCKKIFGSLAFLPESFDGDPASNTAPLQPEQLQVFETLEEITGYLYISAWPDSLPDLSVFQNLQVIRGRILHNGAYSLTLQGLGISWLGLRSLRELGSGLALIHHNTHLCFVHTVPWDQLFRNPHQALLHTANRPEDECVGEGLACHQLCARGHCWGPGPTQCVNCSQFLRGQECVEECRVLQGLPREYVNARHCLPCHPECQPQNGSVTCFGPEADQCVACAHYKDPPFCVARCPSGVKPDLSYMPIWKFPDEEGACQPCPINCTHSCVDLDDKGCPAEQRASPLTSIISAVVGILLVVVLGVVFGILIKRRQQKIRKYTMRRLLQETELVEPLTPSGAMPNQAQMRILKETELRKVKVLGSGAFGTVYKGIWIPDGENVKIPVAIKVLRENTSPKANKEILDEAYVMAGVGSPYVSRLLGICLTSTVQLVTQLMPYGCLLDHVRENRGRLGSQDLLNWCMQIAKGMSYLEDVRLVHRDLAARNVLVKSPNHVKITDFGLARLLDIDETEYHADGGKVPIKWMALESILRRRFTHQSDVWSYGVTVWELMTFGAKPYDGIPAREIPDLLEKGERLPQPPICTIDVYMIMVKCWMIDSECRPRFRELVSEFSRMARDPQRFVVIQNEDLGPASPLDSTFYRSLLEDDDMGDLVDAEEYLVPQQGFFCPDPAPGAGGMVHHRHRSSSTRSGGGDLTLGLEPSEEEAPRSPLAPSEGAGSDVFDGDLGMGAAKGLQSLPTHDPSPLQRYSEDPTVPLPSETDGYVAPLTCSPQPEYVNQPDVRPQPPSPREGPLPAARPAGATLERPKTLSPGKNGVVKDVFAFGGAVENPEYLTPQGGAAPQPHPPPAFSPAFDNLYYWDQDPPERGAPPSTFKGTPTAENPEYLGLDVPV
Chain of Epidermal growth factor receptor (P00533 whole entry): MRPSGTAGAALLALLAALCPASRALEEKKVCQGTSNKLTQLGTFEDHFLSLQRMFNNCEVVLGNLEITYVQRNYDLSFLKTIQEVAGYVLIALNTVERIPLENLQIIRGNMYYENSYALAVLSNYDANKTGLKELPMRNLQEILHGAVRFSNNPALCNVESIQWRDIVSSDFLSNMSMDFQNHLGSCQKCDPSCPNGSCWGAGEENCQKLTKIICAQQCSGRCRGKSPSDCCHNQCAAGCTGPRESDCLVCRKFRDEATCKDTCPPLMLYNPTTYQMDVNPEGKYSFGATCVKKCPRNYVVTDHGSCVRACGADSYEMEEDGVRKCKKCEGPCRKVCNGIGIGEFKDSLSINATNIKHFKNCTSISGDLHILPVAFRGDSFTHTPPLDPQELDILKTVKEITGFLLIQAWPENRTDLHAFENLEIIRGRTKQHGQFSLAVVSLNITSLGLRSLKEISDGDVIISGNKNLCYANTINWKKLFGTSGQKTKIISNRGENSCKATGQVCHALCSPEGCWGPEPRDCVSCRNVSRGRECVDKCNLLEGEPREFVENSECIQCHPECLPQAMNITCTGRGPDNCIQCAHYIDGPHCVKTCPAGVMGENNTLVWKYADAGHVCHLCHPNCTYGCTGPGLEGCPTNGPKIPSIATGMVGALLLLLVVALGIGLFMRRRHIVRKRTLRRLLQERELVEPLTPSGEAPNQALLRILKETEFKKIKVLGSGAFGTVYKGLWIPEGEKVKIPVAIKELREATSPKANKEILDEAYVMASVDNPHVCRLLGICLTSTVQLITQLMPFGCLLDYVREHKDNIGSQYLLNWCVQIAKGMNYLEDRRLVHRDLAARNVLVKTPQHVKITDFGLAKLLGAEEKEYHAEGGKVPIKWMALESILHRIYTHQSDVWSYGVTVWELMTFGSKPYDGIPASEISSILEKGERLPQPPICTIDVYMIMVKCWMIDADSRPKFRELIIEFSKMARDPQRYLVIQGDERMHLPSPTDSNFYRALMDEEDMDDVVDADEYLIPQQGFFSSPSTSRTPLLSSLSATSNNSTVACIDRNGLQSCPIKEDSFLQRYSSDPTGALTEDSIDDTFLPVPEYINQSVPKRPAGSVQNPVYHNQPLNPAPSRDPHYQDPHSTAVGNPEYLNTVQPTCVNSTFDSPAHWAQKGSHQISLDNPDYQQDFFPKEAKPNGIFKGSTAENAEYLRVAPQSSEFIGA

One may read the IC50 as the concentration needed to halve the response being measured. A higher IC50 goes with weaker potency. With `C#Cc1cccc(Nc2c(C#N)cnc3cc(OCCOC)c(OCCOC)cc23)c1`, the IC50 in experiment [1] amounted to 0.173 µg/mL (≈ 0.414 µM); in experiment [2], 850 nM; in experiment [3], 0.68 µg/mL (≈ 1.63 µM); in experiment [4], 0.071 µg/mL (≈ 0.17 µM); in experiment [5], 11800 nM.
The like results for `C=CC(=O)Nc1cc2c(Nc3ccc(F)c(Cl)c3)c(C#N)cnc2cc1OCCCN1CCOCC1` were, in that order, 0.12 µg/mL (≈ 0.235 µM), 80 nM, 0.77 µg/mL (≈ 1.51 µM), 0.03 µg/mL (≈ 0.0588 µM) and 1690 nM.
The like results for `COc1cc2ncc(C#N)c(Nc3ccc(F)c(Cl)c3)c2cc1OCCCN1CCOCC1` were, in that order, 0.25 µg/mL (≈ 0.531 µM), 1040 nM, above 5 µg/mL, 0.332 µg/mL (≈ 0.705 µM) and 14700 nM.
With `C=CC(=O)Nc1cc2c(Nc3ccc(F)c(Cl)c3)ncnc2cc1OCCCN1CCOCC1` [CANERTINIB], the figures for the IC50 in experiment [1], in experiment [3] and in experiment [4] were 0.083 µg/mL (≈ 0.171 µM), 1.45 µg/mL (≈ 2.98 µM) and 0.102 µg/mL (≈ 0.21 µM), respectively.
Regarding `CCOc1cc2ncc(C#N)c(Nc3ccc(F)c(Cl)c3)c2cc1NC(=O)/C=C/CN(C)C` [PELITINIB], the IC50 in experiment [1] worked out at 0.03 µg/mL (≈ 0.0641 µM); in experiment [3] it was 0.317 µg/mL (≈ 0.677 µM); in experiment [4] it was 0.007 µg/mL (≈ 0.015 µM); in experiment [5], 1230 nM.
